Publication doi:10.1101/2025.09.28.679030v1 (biorxiv, 2025)

Target: IGP1 (IGP1/CORK1) ectodomain (Arabidopsis thaliana, UniProt F4I3K3)
Assay: ITC
Assay type: binding
Conditions: purified ectodomain; ligand in LRR domain pocket, three subsites; N=1

Kd: ~1000 nM
Structure (SMILES): OC[C@H]1O[C@@H](O[C@H]2[C@H](O)[C@@H](O)[C@H](O[C@H]3[C@H](O)[C@@H](O)C(O)O[C@@H]3CO)O[C@@H]2CO)[C@H](O)[C@@H](O)[C@@H]1O (stereo partly shown) [CEL3, cellotriose]
